Measured values from ChEMBL document CHEMBL3714742, “Pyrimido (4,5-b) indole derivatives” (2003).
Activity calls are given as the source filed them. No rule for the calls is given here.

How the values were obtained:
[1] = target: T1, Dual specificity mitogen-activated protein kinase kinase 7 (Homo sapiens, UniProt O14733); test: Inhibition of GST-tagged human MKK7 expressed in Escherichia coli (BL21(DE3) pLysS) co-expressing human MEKK catalytic domain using biotinylated and GST-tagged rat GST-KN-SAPKalpha substrate incubated for 1 hr by time-resolved fluorescence based assay
T1 sequence (O14733 whole entry): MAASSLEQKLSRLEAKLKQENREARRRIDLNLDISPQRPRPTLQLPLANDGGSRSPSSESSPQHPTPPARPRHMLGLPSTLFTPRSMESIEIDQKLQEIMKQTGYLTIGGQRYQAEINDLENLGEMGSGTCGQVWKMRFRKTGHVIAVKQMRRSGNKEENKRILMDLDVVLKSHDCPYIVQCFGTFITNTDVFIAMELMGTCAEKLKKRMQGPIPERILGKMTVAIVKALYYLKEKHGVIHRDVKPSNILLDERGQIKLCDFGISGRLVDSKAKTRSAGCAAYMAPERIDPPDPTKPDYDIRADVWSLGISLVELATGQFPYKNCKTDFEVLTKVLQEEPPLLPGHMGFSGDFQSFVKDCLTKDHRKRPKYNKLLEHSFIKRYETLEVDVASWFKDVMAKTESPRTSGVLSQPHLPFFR

Mus musculus [2] = test: Inhibition of anti-CD3 antibody-induced IL2 production in Balb/c mouse dosed intravenously 5 mins before anti-CD3 antibody injection and measured 2 hrs post-challenge by ELISA; format: functional, organism-based
Mus musculus [3] = test: Inhibition of anti-CD3 antibody-induced IL4 production in Balb/c mouse dosed intravenously 5 mins before anti-CD3 antibody injection and measured 2 hrs post-challenge by ELISA; format: functional, organism-based
Mus musculus [4] = test: Inhibition of anti-CD3 antibody-induced IFNgamma production in Balb/c mouse dosed intravenously 5 mins before anti-CD3 antibody injection and measured 2 hrs post-challenge by ELISA; format: functional, organism-based

Row | SMILES | IC50 [1] [nM] | inhibition (Mus musculus [2]) | inhibition (Mus musculus [3]) | inhibition (Mus musculus [4])
1 | COc1cc2[nH]c3nc(N)nc(N4CCOCC4)c3c2cc1OC | 1000 | Active | Active | Active
2 | CNc1nc(C)nc2[nH]c3ccc(O)cc3c12 | 1000 | Active | Active | Active
3 | CN(c1nc(N)nc2[nH]c3ccc(O)cc3c12)C1CCCCC1 | < 1000 | Active | Active | Active
4 | COCCNc1ncnc2[nH]c3ccc(O)cc3c12 | < 1000 | Active | Active | Active
5 | OCCCCN1CCN(c2ncnc3[nH]c4ccc(O)cc4c23)CC1 | < 1000 | Active | Active | Active
6 | Oc1ccc2[nH]c3ncnc(NCCc4c[nH]cn4)c3c2c1 | < 1000 | Active | Active | Active
7 | CC1CCN(c2ncnc3[nH]c4ccc(O)cc4c23)CC1 | < 1000 | Active | Active | Active
8 | Oc1ccc2[nH]c3ncnc(N4CCCCC4)c3c2c1 | < 1000 | Active | Active | Active
9 | NC(=O)c1ccc2[nH]c3ncnc(N4CCC(N)C4)c3c2c1 (centres undefined) | < 1000 | Active | Active | Active
10 | N[C@H]1CCN(c2ncnc3[nH]c4ccc(O)cc4c23)C1 | < 1000 | Active | Active | Active
11 | Oc1ccc2[nH]c3ncnc(N4CCCCCC4)c3c2c1 | < 1000 | Active | Active | Active
12 | NC1CCCN(c2ncnc3[nH]c4ccc(O)cc4c23)C1 (centres undefined) | < 1000 | Active | Active | Active
13 | CC(CO)Nc1ncnc2[nH]c3ccc(C(N)=O)cc3c12 (centres undefined) | < 1000 | Active | Active | Active
14 | Cc1nc(N2CCCC(C)C2)c2c(n1)[nH]c1ccc(O)cc12 (centres undefined) | 1000 | Active | Active | Active
15 | OCC1CCN(c2ncnc3[nH]c4ccc(O)cc4c23)CC1 | < 1000 | Active | Active | Active
16 | Nc1nc(N(Cc2ccccc2)Cc2ccccc2)c2c(n1)[nH]c1ccc(O)cc12 | > 10000 | Active | Active | Active
17 | NC(=O)C1CCN(c2ncnc3[nH]c4ccc(O)cc4c23)CC1 | < 1000 | Active | Active | Active
18 | CC1CCCCN1c1nc(N)nc2[nH]c3ccc(O)cc3c12 (centres undefined) | < 1000 | Active | Active | Active

Row | SMILES | IC50 [1] [nM] | inhibition (Mus musculus [2]) | inhibition (Mus musculus [3]) | inhibition (Mus musculus [4])
19 | NC(=O)c1ccc2[nH]c3ncnc(N4CCC(O)CC4)c3c2c1 | < 1000 | Active | Active | Active
20 | CCC1CCCCN1c1ncnc2[nH]c3ccc(O)cc3c12 (centres undefined) | < 1000 | Active | Active | Active
21 | NCCNc1ncnc2[nH]c3ccc(C(N)=O)cc3c12 | < 1000 | Active | Active | Active
22 | COc1ccc2[nH]c3nc(N)nc(N4CCOCC4)c3c2c1 | < 1000 | Active | Active | Active
23 | CC(O)CNc1ncnc2[nH]c3ccc(O)cc3c12 (centres undefined) | < 1000 | Active | Active | Active
24 | Nc1nc(N2CCC(C(=O)O)CC2)c2c(n1)[nH]c1ccc(O)cc12 | 1000 | Active | Active | Active
25 | Oc1ccc2[nH]c3ncnc(N4CCC(O)CC4)c3c2c1 | < 1000 | Active | Active | Active
26 | Cc1nc(N2CCCC(CO)C2)c2c(n1)[nH]c1ccc(O)cc12 (centres undefined) | < 1000 | Active | Active | Active
27 | NC(=O)c1ccc2[nH]c3ncnc(N4CCCC(N)C4)c3c2c1 (centres undefined) | < 1000 | Active | Active | Active
28 | CC1CCN(c2nc(N)nc3[nH]c4ccc(O)cc4c23)CC1 | < 1000 | Active | Active | Active
29 | OCC1CCCCN1c1ncnc2[nH]c3ccc(O)cc3c12 (centres undefined) | < 1000 | Active | Active | Active
30 | CC1CC(C)CN(c2ncnc3[nH]c4ccc(C(N)=O)cc4c23)C1 (centres undefined) | < 1000 | Active | Active | Active
31 | CN(C)c1ncnc2[nH]c3ccc(O)cc3c12 | < 1000 | Active | Active | Active
32 | NC(=O)c1ccc2[nH]c3ncnc(N4CCC(O)(Cc5ccccc5)CC4)c3c2c1 | < 1000 | Active | Active | Active
33 | NC(=O)c1ccc2[nH]c3nc(N)nc(N4CCCCC4)c3c2c1 | < 1000 | Active | Active | Active
34 | NC(=O)c1ccc2[nH]c3ncnc(N4CCCC4)c3c2c1 | < 1000 | Active | Active | Active
35 | CCN(CCO)c1ncnc2[nH]c3ccc(O)cc3c12 | < 1000 | Active | Active | Active

Now from value to molecule, other results behind:

Row | IC50 [1] [nM] | SMILES | inhibition (Mus musculus [2]) | inhibition (Mus musculus [3]) | inhibition (Mus musculus [4])
36 | < 1000 | Nc1nc(N2CCCCC2)c2c(n1)[nH]c1ccc(O)cc12 | Active | Active | Active
37 | < 1000 | Nc1nc(N2CCOCC2)c2c(n1)[nH]c1ccc(O)cc12 | Active | Active | Active
38 | < 1000 | Cc1nc(N2CCCC(O)C2)c2c(n1)[nH]c1ccc(O)cc12 (centres undefined) | Active | Active | Active
39 | < 1000 | O=C1CCN(c2ncnc3[nH]c4ccc(O)cc4c23)CC1 | Active | Active | Active
40 | < 1000 | CN(CCO)c1nc(N)nc2[nH]c3ccc(O)cc3c12 | Active | Active | Active
41 | < 1000 | NC(=O)c1ccc2[nH]c3ncnc(N(CCO)Cc4ccccc4)c3c2c1 | Active | Active | Active
42 | < 1000 | Cc1nc(N2CCCCC2)c2c(n1)[nH]c1ccc(O)cc12 | Active | Active | Active
43 | < 1000 | Oc1ccc2[nH]c3ncnc(NC4CCOCC4)c3c2c1 | Active | Active | Active
44 | < 1000 | OCC1CCCN(c2ncnc3[nH]c4ccc(O)cc4c23)C1 (centres undefined) | Active | Active | Active
45 | < 1000 | Cc1nc(NC(C)CO)c2c(n1)[nH]c1ccc(OCc3ccccc3)cc12 (centres undefined) | Active | Active | Active
46 | < 1000 | O=CN1CCN(c2ncnc3[nH]c4ccc(O)cc4c23)CC1 | Active | Active | Active
47 | < 1000 | CC(=O)NC1CCN(c2ncnc3[nH]c4ccc(C(N)=O)cc4c23)CC1 | Active | Active | Active
48 | < 1000 | CN(Cc1ccccc1)c1nc(N)nc2[nH]c3ccc(O)cc3c12 | Active | Active | Active
49 | < 1000 | NC(=O)c1ccc2[nH]c3ncnc(N4CCCCCC4)c3c2c1 | Active | Active | Active
50 | < 1000 | NCCCNc1ncnc2[nH]c3ccc(C(N)=O)cc3c12 | Active | Active | Active
51 | < 1000 | Nc1nc(NC2CCCC2)c2c(n1)[nH]c1ccc(O)cc12 | Active | Active | Active
